Where “and” joins values, the source holds several entries; their conditions need not be identical. Equal entries are not always repeated.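 Method: 48-hour compound exposure of cells in 96-well plates, five concentrations, linear interpolation of endpoints. The concentration for 50% growth inhibition is given as GI50. TGI: concentration producing complete growth inhibition.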
Assays:
Experiment in all cases: NCI-60 cell line screen, 48 h
DLD-1 colon = tested on: DLD-1 colon
HOP-18 NSCLC = tested on: HOP-18 NSCLC
HOP-62 NSCLC = tested on: HOP-62 NSCLC
LOX IMVI melanoma = tested on: LOX IMVI melanoma
NCI-H23 lung = tested on: NCI-H23 lung
SF-539 CNS = tested on: SF-539 CNS
SW-620 colon = tested on: SW-620 colon
UO-31 renal = tested on: UO-31 renal
BT-549 breast = tested on: BT-549 breast
NCI/ADR-RES ovarian = tested on: NCI/ADR-RES ovarian

Compound: N#Cc1c(C(N)=O)ncn1Cc1ccccc1
- TGI (DLD-1 colon): > 100 µM
- TGI (HOP-18 NSCLC): > 100 µM
- TGI (HOP-62 NSCLC): > 100 µM
- TGI (LOX IMVI melanoma): > 100 µM
- TGI (NCI-H23 lung): > 100 µM
- TGI (SF-539 CNS): > 100 µM
- TGI (SW-620 colon): > 100 µM
- TGI (UO-31 renal): > 100 µM

Compound: COc1ccc(C2c3cc4c(cc3OC(O)(CO)C2C(=O)O)OCO4)c(OC)c1OC (stereo unspecified) (tested in a mixture with another compound)
- TGI (DLD-1 colon): > 100 µM
- TGI (HOP-18 NSCLC): > 100 µM
- TGI (HOP-62 NSCLC): > 100 µM
- TGI (LOX IMVI melanoma): > 100 µM
- TGI (NCI-H23 lung): > 100 µM
- TGI (SF-539 CNS): > 100 µM
- TGI (SW-620 colon): > 100 µM
- TGI (UO-31 renal): > 100 µM

Compound: C/C=C/CP(=O)(c1ccccc1)c1ccccc1
- TGI (DLD-1 colon): > 100 µM
- TGI (HOP-18 NSCLC): > 100 µM
- TGI (HOP-62 NSCLC): > 100 µM
- TGI (LOX IMVI melanoma): > 100 µM
- TGI (NCI-H23 lung): > 100 µM
- TGI (SF-539 CNS): > 100 µM
- TGI (SW-620 colon): > 100 µM
- TGI (UO-31 renal): > 100 µM

Compound: Nc1nc(F)nc2c1ncn2C1OC(COP(=O)(O)O)C(O)C1O (stereo unspecified)
- TGI (BT-549 breast): 302 µM
- TGI (DLD-1 colon): > 1080 µM
- TGI (HOP-18 NSCLC): 552 µM
- TGI (HOP-62 NSCLC): 122 µM
- TGI (LOX IMVI melanoma): 334 µM
- TGI (NCI-H23 lung): 243 µM
- TGI (NCI/ADR-RES ovarian): 106 µM
- TGI (SF-539 CNS): 859 µM
- TGI (SW-620 colon): 675 µM
- TGI (UO-31 renal): 76.4 µM

Compound: COc1ccc(/C(Cl)=C(\C=O)c2cc(OC)c(OC)c(OC)c2)cc1OC
- TGI (HOP-18 NSCLC): 58.4 µM
- TGI (HOP-62 NSCLC): > 100 µM
- TGI (LOX IMVI melanoma): > 100 µM
- TGI (NCI-H23 lung): > 100 µM
- TGI (NCI/ADR-RES ovarian): 40.2 µM
- TGI (SF-539 CNS): 87.9 µM
- TGI (SW-620 colon): > 100 µM
- TGI (UO-31 renal): > 100 µM

Compound: CC(=O)Oc1cc2c(=O)oc3c(OC(C)=O)c(OC(C)=O)c(OC(C)=O)c4c(=O)oc(c1OC(C)=O)c2c34
- TGI (DLD-1 colon): > 100 µM
- TGI (HOP-18 NSCLC): > 100 µM
- TGI (HOP-62 NSCLC): > 100 µM
- TGI (LOX IMVI melanoma): 32.6 µM
- TGI (NCI-H23 lung): > 100 µM
- TGI (SF-539 CNS): 75.5 µM
- TGI (SW-620 colon): > 100 µM
- TGI (UO-31 renal): > 100 µM

Compound: O=C1CC(c2ccccc2)NCN1 (stereo unspecified)
- TGI (DLD-1 colon): > 100 µM
- TGI (HOP-18 NSCLC): > 100 µM
- TGI (HOP-62 NSCLC): > 100 µM
- TGI (LOX IMVI melanoma): > 100 µM
- TGI (NCI-H23 lung): > 100 µM
- TGI (SW-620 colon): > 100 µM
- TGI (UO-31 renal): > 100 µM

Compound: O=C1C(Br)=C(c2ccccc2)C(c2ccccc2)=C1c1ccccc1
- TGI (BT-549 breast): 10.9 µM
- TGI (DLD-1 colon): 3.66 µM
- TGI (HOP-18 NSCLC): 14.9 µM
- TGI (HOP-62 NSCLC): 23 µM
- TGI (LOX IMVI melanoma): 2.94 µM
- TGI (NCI-H23 lung): 10.5 µM
- TGI (SF-539 CNS): 8.07 µM
- TGI (SW-620 colon): 3.26 µM
- TGI (UO-31 renal): 12.8 µM

Compound: NC(=S)N/N=C1\C(=O)N(c2cccc([N+](=O)[O-])c2)C(=O)C1C(=O)Nc1cccc([N+](=O)[O-])c1 (stereo unspecified)
- TGI (DLD-1 colon): > 100 µM
- TGI (HOP-18 NSCLC): > 100 µM
- TGI (HOP-62 NSCLC): > 100 µM
- TGI (LOX IMVI melanoma): > 100 µM
- TGI (NCI-H23 lung): > 100 µM
- TGI (SF-539 CNS): > 100 µM
- TGI (SW-620 colon): > 100 µM
- TGI (UO-31 renal): > 100 µM

Compound: COC1=CC(C)C2C[C@H]3O[C@H](O)C[C@H]4C(C)C(=O)C(O)C([C@@]2(C)C1=O)[C@@]34C (stereo partly specified)
- TGI (DLD-1 colon): > 100 µM
- TGI (HOP-18 NSCLC): > 100 µM
- TGI (LOX IMVI melanoma): > 100 µM
- TGI (NCI-H23 lung): > 100 µM
- TGI (SF-539 CNS): > 100 µM
- TGI (SW-620 colon): > 100 µM
- TGI (UO-31 renal): > 100 µM

Compound: CC1CC(C)C(=O)C(C(=O)CC2CC(=O)NC2=O)C1 (stereo unspecified)
- TGI (DLD-1 colon): > 100 µM
- TGI (HOP-18 NSCLC): > 100 µM
- TGI (HOP-62 NSCLC): > 100 µM
- TGI (LOX IMVI melanoma): > 100 µM
- TGI (NCI-H23 lung): > 100 µM
- TGI (SF-539 CNS): > 100 µM
- TGI (SW-620 colon): > 100 µM
- TGI (UO-31 renal): > 100 µM

Compound: CC1=Cc2cc3[n-]c(cc4nc(cc5[n-]c(cc1n2)c(C)c5CCC(=O)O)C(CCC(=O)O)=C4C)cc3C.[Cu+2]
- GI50 (BT-549 breast): 14.5 µM
- TGI (BT-549 breast): 27.8 µM
- GI50 (DLD-1 colon): > 42.6 µM
- TGI (DLD-1 colon): > 93 µM
- GI50 (HOP-18 NSCLC): > 100 µM
- TGI (HOP-18 NSCLC): > 100 µM
- GI50 (HOP-62 NSCLC): > 1 µM and 20.8 µM
- TGI (HOP-62 NSCLC): > 1 µM and 59.1 µM
- GI50 (LOX IMVI melanoma): 28.1 µM
- TGI (LOX IMVI melanoma): > 65.3 µM
- GI50 (NCI-H23 lung): > 1 µM and 24.9 µM
- TGI (NCI-H23 lung): > 1 µM and 52.8 µM
- GI50 (NCI/ADR-RES ovarian): 37.2 µM
- TGI (NCI/ADR-RES ovarian): > 100 µM
- GI50 (SF-539 CNS): < 1 µM and 3.52 µM
- TGI (SF-539 CNS): > 1 µM and 11.6 µM
- GI50 (SW-620 colon): > 47.7 µM
- TGI (SW-620 colon): > 79.6 µM
- GI50 (UO-31 renal): > 1 µM and 38.3 µM
- TGI (UO-31 renal): > 92.7 µM

Compound: CC1(C)OC(=O)C=C(O)O1.CC1(C)OC(=O)C=C(O)O1.CCO.Oc1ccc2c(c1)CCC2.[Ti]
- GI50 (DLD-1 colon): > 100 µM
- TGI (DLD-1 colon): > 100 µM
- GI50 (HOP-18 NSCLC): > 100 µM
- TGI (HOP-18 NSCLC): > 100 µM
- GI50 (HOP-62 NSCLC): > 100 µM
- TGI (HOP-62 NSCLC): > 100 µM
- GI50 (LOX IMVI melanoma): > 100 µM
- TGI (LOX IMVI melanoma): > 100 µM
- GI50 (NCI-H23 lung): > 100 µM
- TGI (NCI-H23 lung): > 100 µM
- GI50 (SF-539 CNS): > 100 µM
- TGI (SF-539 CNS): > 100 µM
- GI50 (SW-620 colon): > 100 µM
- TGI (SW-620 colon): > 100 µM
- GI50 (UO-31 renal): > 100 µM
- TGI (UO-31 renal): > 100 µM

Compound: Cc1ccc(NC(=O)/C(=N/NC(=O)CC#N)C2C(=O)N(c3ccccc3)N=C2N)cc1C (stereo unspecified)
- TGI (DLD-1 colon): > 100 µM
- TGI (HOP-18 NSCLC): > 100 µM
- TGI (HOP-62 NSCLC): > 100 µM
- TGI (LOX IMVI melanoma): > 100 µM
- TGI (NCI-H23 lung): > 100 µM
- TGI (SF-539 CNS): > 100 µM
- TGI (SW-620 colon): > 100 µM
- TGI (UO-31 renal): > 100 µM

Compound: CCC[CH2][Sn]([CH2]CCC)([O]C(=O)c1cccc(F)c1F)[O][Sn]([CH2]CCC)([CH2]CCC)[O]C(=O)c1cccc(F)c1F
- GI50 (BT-549 breast): 0.121 µM
- TGI (BT-549 breast): 0.369 µM
- GI50 (DLD-1 colon): 0.182 µM
- TGI (DLD-1 colon): 0.744 µM
- GI50 (HOP-18 NSCLC): 0.551 µM
- TGI (HOP-18 NSCLC): 1.51 µM
- GI50 (HOP-62 NSCLC): 1.6 µM
- TGI (HOP-62 NSCLC): 3 µM
- GI50 (LOX IMVI melanoma): 0.111 µM
- TGI (LOX IMVI melanoma): 0.25 µM
- GI50 (NCI-H23 lung): 0.0557 µM
- TGI (NCI-H23 lung): 0.272 µM
- GI50 (NCI/ADR-RES ovarian): 0.3 µM
- TGI (NCI/ADR-RES ovarian): 1.32 µM
- GI50 (SF-539 CNS): 0.208 µM
- TGI (SF-539 CNS): 0.722 µM
- GI50 (SW-620 colon): 0.103 µM
- TGI (SW-620 colon): 0.239 µM
- GI50 (UO-31 renal): 0.506 µM
- TGI (UO-31 renal): 1.72 µM

Compound: NC1=NN(c2ccccc2)C(=O)C1C(=O)C(=O)Nc1cccc(C(F)(F)F)c1 (stereo unspecified)
- TGI (DLD-1 colon): > 100 µM
- TGI (HOP-18 NSCLC): > 100 µM
- TGI (HOP-62 NSCLC): > 100 µM
- TGI (LOX IMVI melanoma): > 100 µM
- TGI (NCI-H23 lung): > 100 µM
- TGI (SF-539 CNS): > 100 µM
- TGI (SW-620 colon): > 100 µM
- TGI (UO-31 renal): > 100 µM

Source: PubChem BioAssay (NCI)
